Laboratory results from ChEMBL document CHEMBL5634134, “Design, synthesis, and biological evaluation of novel 4,4'-bipyridine derivatives acting as CDK9-Cyclin T1 protein-protein interaction inhibitors against triple-negative breast cancer” (Eur J Med Chem, 2023).
Calls of active or inactive are those of the source. No cut-off for these calls is given here.

Columns and labels:
[1] = biological target: Cyclin-dependent kinase 1 (Homo sapiens) (UniProt P06493); test: Binding affinity to CDK1 in human MDA-MB-231 cells asssesed as thermal stabilization at 1 uM incubated for 8 hrs under 45 to 65 degreeC by Western blot analysis; format: cell-based
Sequence of Cyclin-dependent kinase 1 (Homo sapiens) (P06493 whole entry, looked up): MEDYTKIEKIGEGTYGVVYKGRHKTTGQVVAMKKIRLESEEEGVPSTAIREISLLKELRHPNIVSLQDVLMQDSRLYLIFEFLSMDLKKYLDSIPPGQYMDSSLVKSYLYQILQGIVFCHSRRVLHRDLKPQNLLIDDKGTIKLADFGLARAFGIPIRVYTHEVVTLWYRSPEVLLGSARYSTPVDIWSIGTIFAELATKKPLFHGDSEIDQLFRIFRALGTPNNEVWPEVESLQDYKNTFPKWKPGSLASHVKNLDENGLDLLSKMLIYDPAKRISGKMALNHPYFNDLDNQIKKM

[2] = biological target: Cyclin-dependent kinase 7/ cyclin H (Homo sapiens) (UniProt P51946+P50613); test: Inhibition of Flag-tagged CDK7(unknown origin)/Cyclin H (unknown origin) transfected in HEK293T cells at 1 to 3 uM incubated for 8 hrs by co-immunoprecipitation assay; format: cell-based; conditions: dose 1-3 µM
MDA-MB-231 [3] = test: Induction of apoptosis in human MDA-MB-231 cells assessed as late apoptotic cells at 1000 nM incubated for 72 hrs by Annexin V-FITC/PI staining based flow cytometry analysis (reference value: 4.04 %); format: functional
[4] = MRT (0 to infinity) in Sprague-Dawley rat at 50 mg/kg, ip measured afer 24 hrs by LC-MS/MS analysis; format: ADME, organism-based; conditions: in vivo
MDA-MB-231 [5] = test: Induction of apoptosis in human MDA-MB-231 cells assessed as early apoptotic cells at 37 nM incubated for 72 hrs by Annexin V-FITC/PI staining based flow cytometry analysis (reference value: 0.66 %); format: functional
MDA-MB-231 [6] = test: Inhibition of colony formation in human MDA-MB-231 cells at 20 nM incubated for 10 days by crystal violet staining based analysis; format: functional, cell-based; conditions: time 10.0 day
[7] = Toxicity in mouse assessed as increase in body weight at 62.5 to 500 mg/kg, ip administered for 16 days; format: organism-based; conditions: in vivo, 384 h, dose 62.5-500 mg/kg, time 16 day
MDA-MB-231 [8] = test: Antiproliferative activity against human MDA-MB-231 cells assessed as inhibition of 3D tumor growth at 100 nM incubated for 10 days in presence of olaparib by confocal laser scanning microscopic analysis; format: functional, cell-based; conditions: time 10.0 day
MDA-MB-231 [9] = test: Antiproliferative activity against human MDA-MB-231 cells assessed as decrease in sphere size by measuring sphere diameter at 100 nM incubated for 10 days by confocal laser scanning microscopy (reference value: 508.27 micrometer); format: functional; conditions: time 10 day
[10] = Half life in Sprague-Dawley rat at 50 mg/kg, ip measured afer 24 hrs by LC-MS/MS analysis; format: ADME, organism-based; conditions: in vivo
[11] = Cytotoxicity against human MRC5 cells assessed as inhibition of cell growth incubated for 72 hrs by MTT assay; format: toxicity, cell-based
MDA-MB-231 [12] = test: Induction of apoptosis in human MDA-MB-231 cells assessed as late apoptotic cells at 333 nM incubated for 72 hrs by Annexin V-FITC/PI staining based flow cytometry analysis (reference value: 4.04 %); format: functional
[13] = Toxicity in athymic BALB/c mouse implanted with mouse 4T1 cells assessed as body weight loss at 12.5 mg/kg, ip administered for 14 days; format: organism-based; conditions: in vivo, 336 h, time 14 day
MDA-MB-231 [14] = test: Inhibition of cell invasion in human MDA-MB-231 cells at 1000 nM incubated for 24 hrs by crystal violet staining based transwell matrix penetration assay; format: functional
MDA-MB-231 [15] = test: Inhibition of colony formation in human MDA-MB-231 cells assessed as reduction in colony size incubated for 10 days by crystal violet staining based analysis; format: functional, cell-based; conditions: dose 12-1000 nM, time 10.0 day
4T1 [16] = test: Antitumor activity against mouse 4T1 cells implanted in athymic BALB/c mouse assessed as increase in cleaved PARP at 12.5 to 25 mg/kg, ip administered once daily for 14 days by Western blot analysis; format: functional, organism-based; conditions: dose 12.5-25 mg/kg, time 14.0 day
MDA-MB-231 [17] = test: Induction of apoptosis in human MDA-MB-231 cells assessed as necrotic cells at 333 nM incubated for 72 hrs by Annexin V-FITC/PI staining based flow cytometry analysis (reference value: 0.49 %); format: functional
MDA-MB-231 [18] = test: Induction of apoptosis in human MDA-MB-231 cells assessed as viable cells at 1000 nM incubated for 72 hrs by Annexin V-FITC/PI staining based flow cytometry analysis (reference value: 94.81 %); format: functional; conditions: read-out: Activity
[19] = Toxicity in mouse assessed as death rate at 1000 mg/kg, ip administered for 16 days relative to control; format: organism-based; conditions: in vivo, time 16 day, read-out: Activity
[20] = Tmax in Sprague-Dawley rat at 50 mg/kg, ip measured afer 24 hrs by LC-MS/MS analysis; format: ADME, organism-based; conditions: in vivo
MDA-MB-231 [21] = test: Induction of apoptosis in human MDA-MB-231 cells transfected with shCDK9 assessed as reduction in Bcl-2 expression at 300 nM by Western blot analysis; format: functional, cell-based
[22] = Toxicity in mouse assessed as animal death at 62.5 to 500 mg/kg, ip administered for 16 days; format: organism-based; conditions: in vivo, 384 h, dose 62.5-500 mg/kg, time 16 day
MDA-MB-231 [23] = test: Induction of apoptosis in human MDA-MB-231 cells assessed as reduction in Bcl2 level incubated for 24 hrs by Western blot analysis; format: functional, cell-based; conditions: dose 37-1000 nM
[24] = Toxicity in mouse assessed as death rate at 750 mg/kg, ip administered for 16 days relative to control; format: organism-based; conditions: in vivo, time 16 day, read-out: Activity
[25] = Toxicity in mouse assessed as median lethal dose administered intraperitoneally for 16 days; conditions: in vivo, route ip, time 16 day
4T1 [26] = test: Antitumor activity against mouse 4T1 cells implanted in athymic BALB/c mouse assessed as reduction in tumor volume at 12.5 to 25 mg/kg, ip administered for 14 days; format: functional, organism-based; conditions: dose 12.5-25 mg/kg, time 14.0 day
MDA-MB-231 [27] = test: Synergistic antiproliferative activity against human MDA-MB-231 cells assessed as inhibition of cell growth incubated for 48 hrs in presence of varying concentrations of olaparib by MTT assay; format: functional, cell-based; conditions: dose 0.01-4 µM
[28] = Toxicity in athymic BALB/c mouse implanted with mouse 4T1 cells assessed as spleen tissue damage at 12.5 to 25 mg/kg, ip administered for 14 days; format: organism-based; conditions: in vivo, 336 h, dose 12.5-25 mg/kg, time 14 day
[29] = Cytotoxicity against HK-2 cells assessed as inhibition of cell growth incubated for 72 hrs by MTT assay; format: toxicity, cell-based; conditions: human
[30] = Toxicity in athymic BALB/c mouse implanted with mouse 4T1 cells assessed as heart tissue damage at 12.5 to 25 mg/kg, ip administered for 14 days; format: organism-based; conditions: in vivo, 336 h, dose 12.5-25 mg/kg, time 14 day
MDA-MB-231 [31] = test: Effect on C-Myc protein expression in human MDA-MB-231 cells transfected with shCDK9 at 300 nM by Western blot analysis; format: functional, cell-based
MDA-MB-231 [32] = test: Inhibition of colony formation in human MDA-MB-231 cells at 20 nM incubated for 10 days in presence of olaparib by crystal violet staining based analysis; format: functional, cell-based; conditions: time 10.0 day
[33] = AUC (0 to infinity) in Sprague-Dawley rat at 50 mg/kg, ip measured afer 24 hrs by LC-MS/MS analysis; format: ADME, organism-based; conditions: in vivo
MDA-MB-231 [34] = test: Antimetastasis activity in human MDA-MB-231 cells assessed as wound closure at 0.1 uM and measured upto 48 hrs by inverted microscope analysis (reference value: 46 %); format: functional
MDA-MB-231 [35] = test: Induction of apoptosis in human MDA-MB-231 cells assessed as early apoptotic cells at 1000 nM incubated for 72 hrs by Annexin V-FITC/PI staining based flow cytometry analysis (reference value: 0.66 %); format: functional

In the case of `COc1ccc(C(=O)Nc2cc(-c3ccnc(N4CCC(O)CC4)c3)ccn2)cc1`, the Activity [1] is reported as “inactive”, the inhibition [2] is reported as “inactive” and the Activity (MDA-MB-231 [3]) is reported as 71.6%. For the same molecule, the MRT inf [4] was 1.26 h, the Activity (MDA-MB-231 [5]) was 3.14% and the inhibition (MDA-MB-231 [6]) was “inactive”. The Activity [7] was “Non-Toxic”, the Activity (MDA-MB-231 [8]) was “Active” and the Activity (MDA-MB-231 [9]) was 429.81 um. The half-life [10] was 1.67 h, the IC50 at 72 h [11] was 335 nM and the Activity (MDA-MB-231 [12]) was 48.6%. The Activity [13] was “Non-Toxic”, the inhibition (MDA-MB-231 [14]) was “Active” and the inhibition (MDA-MB-231 [15]) was “Dose-Dependent Effect”. For the same molecule, the Activity (4T1 [16]) was “Active”, the Activity (MDA-MB-231 [17]) was 0.25% and the viability at 1 µM (MDA-MB-231 [18]) was 14.2%. The mortality at 384 h [19] was 100%, the Tmax [20] was 0.5 h and the Activity (MDA-MB-231 [21]) was “inactive”. For the same molecule, the Activity [22] was “Non-Toxic”, the Activity (MDA-MB-231 [23]) was “Dose-Dependent Effect” and the mortality at 384 h [24] was 40%. For the same molecule, the LD50 at 384 h [25] was 750 mg/kg, the Activity (4T1 [26]) was “Active” and the Activity (MDA-MB-231 [27]) was “Dose-Dependent Effect”. The Activity [28] was “Non-Toxic”, the IC50 at 72 h [29] was 481 nM and the Activity [30] was “Non-Toxic”. For the same molecule, the Activity (MDA-MB-231 [31]) was “inactive”, the inhibition (MDA-MB-231 [32]) was “Active” and the AUC(0-inf) [33] was 17000 ng·h/mL. For the same molecule, the Activity (MDA-MB-231 [34]) was 18% and the Activity (MDA-MB-231 [35]) was 14.2%.
